Assay results from patent US20080044405A1, “Noble metal complex-mediated immunosuppression” (President and Fellows of Harvard College, priority 2006, published 2008).
Several values for one entry are separate records, joined by “and”; a condition that tells them apart may be missing. Identical values can stand only once. Like-named read-outs stand apart in the source and are kept apart here.

Legend:
DR1-HA = DR1-HA (Homo sapiens, UniProt P01903+P01911, A100R/D57E/F55L/F60I/F76Y/I96L/L162R/M171V/P40L/Q125E/R42F/V115G/Y59C); test: activation of sodium aurothiomalate by hypochlorite, peptide release ELISA; type: binding; conditions: pH 7.4, final compound 10 μM, oxidant 0-10 μM, overnight 37° C.
Procedure: Activation of sodium aurothiomalate (sodium Au(I)-thiomalate, 8) by sodium hypochlorite (NaOCl). Sodium aurothiomalate (8; 300 μM) and a control, thiomalate (D,L-mercaptosuccinic acid, 9), were dissolved in PBS and incubated for 1 h at 20° C. with increasing concentrations of NaOCl. After 1 h, 5 μl of each reaction stock solution was added to DR1-HA-biotin (0.1 μM) in PBS (pH 7.4). The final concentration of compounds 8 and 9 was 10 μM. After incubation of the protein with added compound overnight at 37° C., the amount of biotinylated HA peptide that bound to DR1 was determined by chemiluminescent ELISA.
Activation of sodium aurothiomalate (Au(I)-thiomalate, 8) by sodium hypochlorite (NaOCl). The concentration of sodium hypochlorite (NaOCl) solution was determined prior to each use by measuring the absorbance at 292 nm (ε292=350 M^−1cm^−1). Sodium aurothiomalate (8), 300 μM, was incubated for one hour at 20° C. in the presence of increasing concentrations of NaOCl (0 μM, 100 μM, 125 μM, 150 μM, and 300 μM) in PBS (pH 7.4). As a control, thiomalate (D,L-mercaptosuccinic acid, 9), 300 μM, was also treated with the identical concentrations of NaOCl. After one hour, 5 μL of each reaction stock solution was added to 145 μL of DR1-HA-biotin complex in PBS (pH 7.4). The final protein concentration was 0.1 μM and the final concentration of compounds 8 and 9 was 10 μM. Final concentrations of oxidant were 0, 3.33, 4.17, 5 and 10 μM. Each concentration of oxidant was tested in quadruplicate. After incubating overnight at 37° C., the amount of biotinylated HA peptide that remained bound to DR1 was determined using the chemiluminescent ELISA described above.

[1] = molecular target: DR1-CLIP (fluorescently labeled CLIP bound to HLA-DR1) (Homo sapiens, UniProt P01903+P01911, A100R/D57E/F55L/F60I/F76Y/I96L/L162R/M171V/P40L/Q125E/R42F/V115G/Y59C); test: fluorescence polarization screen of peptide release from DR1-CLIP (high-throughput and focused metal screen); type: binding; conditions: for ability to disrupt DR1-CLIP association, focused screen of metal complexes (FIG. 1a): 250 μM, ~20 h, 37° C., pH 5.0; for activity in high-throughput screen (peptide release by fluorescence polarization): 28,000 compounds screened, HLA-DM present, pH 5
Procedure: To find small-molecule modulators of class II MHC-peptide interactions, we used a high-throughput, fluorescence polarization assay to screen 28,000 compounds and natural extracts. Each well of a microplate contained a fluorescently labeled class II-associated invariant chain peptide (CLIP) bound to human leukocyte antigen (HLA)-DR1, a class II MHC protein. In addition, HLA-DM, a peptide exchange catalyst required in vivo for efficient loading, was present. The assay was performed at pH 5 to simulate endosomal pH (Morris P et al. (1994) Nature 368:551-4; Weber D A et al. (1996) Science 274:618-20). Compounds were added to the plates by pin transfer and monitored peptide release by fluorescence polarization. The screen uncovered only two active compounds, cisplatin (1) and carboplatin (2), both platinum(II) complexes.
Fluorescence polarization (FP) based binding assay used for small molecule screening. A FP assay was developed in order to screen small-molecule libraries for chemicals that could modulate peptide binding by class II MHC proteins. The fluorescent DR1-CLIP-AlexaFluor488 (0.1 μM) was used for all FP studies. The concentration of DM used in the screening assay, and when included as a control, was 0.1 μM. Experiments were carried out in a final volume of 40 μl in black, 384-well assay plates (non-binding surface, Costar). The plate was sealed with an aluminum foil seal (Costar), placed in a sealed humidified container, and incubated at 37° C. The FP values for each experimental well were determined using a plate reader (Analyst, LJL Biosystems). A total of 27,937 compounds from several commercial sources were screened using this assay. This assay format was also used to screen several metal complexes and chloride salts as wells as for kinetic studies.
Focused screen of metal complexes using the FP assay. Based on the results of the primary small molecule screen, a focused screen consisting of several metal complexes and chloride salts was performed using the fluorescence polarization assay. […]. These were tested in duplicate at a concentration of 250 μM. For the focused screen, DR1 (100 nM) bound to a Alexa-Fluor 488-labeled CLIP (af-CLIP) peptide was incubated with several metal complexes and salts (250 μM) for ˜20 h (37° C., pH 5.0), and then peptide release was measured by a fluorescence polarization assay. For comparison, the FP of labeled DR1-CLIP incubated with and without excess unlabeled HA peptide and the FP of af-CLIP peptide alone were also measured.

DR1-CLIP complex = DR1-CLIP complex (Homo sapiens, UniProt P01903+P01911, A100R/D57E/F55L/F60I/F76Y/I96L/L162R/M171V/P40L/Q125E/R42F/V115G/Y59C); test: chemiluminescent ELISA of metal-induced peptide release, DR1-CLIP; type: binding; conditions: for IC50: read-out: IC50 for CLIP release from DR1
DR1-HA(306-318) complex = DR1-HA(306-318) complex (Homo sapiens, UniProt P01903+P01911, A100R/D57E/F55L/F60I/F76Y/I96L/L162R/M171V/P40L/Q125E/R42F/V115G/Y59C); test: chemiluminescent ELISA of metal-induced peptide release, DR1-HA; type: binding; conditions: read-out: IC50 for HA peptide release from DR1
[2] = system: HA peptide-loaded LG-2 cells presented to influenza-specific T cell hybridoma; test: T cell activation assay (IL-2 release); type: cell-based; conditions: 1-100 μM, APCs treated […], IL-2 ELISA (FIG. 4c)
[3] = system: peptide-class II MHC complex; test: inhibition of peptide-class II MHC complex formation, cis versus trans; type: binding
[4] = pH 5, overnight 37° C., without DM

O=C(O)CC(S)C(=O)O (racemic) [thiomalate, D,L-mercaptosuccinic acid]
peptide release from DR1-HA after treatment of compound with hypochlorite (DR1-HA): does not have an effect
peptide release from DR1-HA after treatment of compound with hypochlorite (DR1-HA; listed as 9): did not

[Cl][Pd-2]([Cl])([Cl])[Cl].[K+].[K+] [Compound K2PdCl4, K2PdCl4]
ability to disrupt DR1-CLIP association, focused screen of metal complexes (FIG. 1a) [1]: active
IC50 (DR1-CLIP complex; [4]): 3.48 ± 0.37 µM

[Au+].[C-]#N.[C-]#N.[K+] [K[Au^I(CN)2]]
ability to disrupt DR1-CLIP association, focused screen of metal complexes (FIG. 1a) [1]: did not release peptide from DR1

[Cl][Ni][Cl] [NiCl2]
ability to disrupt DR1-CLIP association, focused screen of metal complexes (FIG. 1a) [1]: inactive
activity in titration of DR1-CLIP complex (FIG. 1b) (DR1-CLIP complex; pH 5): inactive

N.N.O=C([O-])C1(C(=O)[O-])CCC1.[Pt+2] [carboplatin, diammine[1,1-cyclobutane-dicarboxylato(2-)-O,O′]—Pt^II]
activity in high-throughput screen (peptide release by fluorescence polarization) [1]: active

N.N.[Cl][Pt][Cl] [cisplatin, cis-diamminedichloroplatinum (II)]
activity in high-throughput screen (peptide release by fluorescence polarization) [1]: active
IC50 (DR1-CLIP complex; [4]): 2.66 ± 0.69 µM
IC50 (DR1-CLIP complex; pH 7.4): 0.77 ± 0.03 µM
IC50 (DR1-HA(306-318) complex; pH 5): ~4 µM and 5.49 µM
IC50 (DR1-HA(306-318) complex; pH 7.4): ~1 µM and 1.06 µM
inhibition of T-cell activation by metal-pretreated antigen-presenting cells [2]: blocked
inhibition of T-cell activation by metal-pretreated antigen-presenting cells ([2]; listed as Cisplatin): more potent
activity as inhibitor of peptide-class II MHC complex formation [3]: active

O=C([O-])CC([S-])C(=O)[O-].[Au+].[Na+].[Na+] (stereo not drawn) [sodium Au(I)-thiomalate, sodium aurothiomalate]
activity in titration of DR1-CLIP complex (FIG. 1b) (DR1-CLIP complex; pH 5): did not release peptide from DR1
activity in titration of DR1-CLIP complex (FIG. 1b) (DR1-CLIP complex; pH 5, listed as sodium aurothiomalate): inactive
peptide release from DR1-HA after treatment of compound with hypochlorite (DR1-HA): causes peptide release from DR1
peptide release from DR1-HA after treatment of compound with hypochlorite (DR1-HA; listed as 8): caused peptide release

N.N.[Cl][Pt+2][Cl] [transplatin]
activity as inhibitor of peptide-class II MHC complex formation [3]: is not
